For the experiment, the system named is DENV (serotype 2, strain 16681) in Huh7.5 cells. As to the kind of experiment: DENV Huh7.5 antiviral assay (infectious titer by plaque assay). The experiment is classed as cell-based, dengue virus. To be noted: MOI 0.1, 48 h, titration of 4 or 50 µm of 3. Here is the method: Supplemental Figure 3: Antiviral activity of 4 in human hepatoma Huh7.5 cell line.
(A) Huh7.5 cells were infected with DENV (serotype 2, strain 16681, multiplicity of infection = 0.1) and treated with a titration of ToP-DNJ 4 or 50 µm of tocopherol 3 for 48 h. Infectious virus titer was measured by plaque assay on LLC-MK2 cells. Counts were normalized to 100% for untreated samples.
DENV eﬀect at the concentrations tested. (B) Huh7.5 cells were infected with HCV (JFH-1, multiplicity of infection = 2) and treated with a titration of ToP-DNJ 4 or 50 µm tocopherol 3 for 96 h. Infectious virus titer was measured by TCID50 assay on […]
tested. In both panels, each data point represent the mean of triplicates, with error bars showing standard error of the mean (GraphPad Prism). […]
each well was scored as either positive (≥ 5 stained cells) or negative. TCID50 values were calculated according to the method of Reed and Muench.8 […]
The infectious DENV titres in supernatants collected were evaluated by plaque assay as described previously.9 Brieﬂy, LLC-MK2 cells were seeded in conﬂuent monolayers in a 12-well plate. Four 10-fold dilutions of each supernatant to be analyzed were prepared in minimum essential media (MEM, Gibco), supplemented with 100 µg mL−1 streptomycin, 100 U mL−1 penicillin and 10% (v/v) FCS. […]
After 1 d, plaques were observed and counted from the underside of the plate by eye. […]

“Also recorded” adds a separate entry of the source.

As to `Cc1c(C)c2c(c(C)c1OCCCCCN1CC(O)C(O)C(O)C1CO)CCC(C)(CCCC(C)CCCC(C)CCCC(C)C)O2` (stereo not shown) [Compound 4, 5′-tocopheroxypentyl-DNJ], the “anti-DENV effect (infectious virus titer)” value is reported as “neither an anti-DENV nor anti-HCV effect was observed; also recorded: Neither 4 nor 3 showed an anti-”.

(Values after publication PMC5824344 (ACS Chemical Biology, 2017).)
